Source: ChEMBL document CHEMBL1201862, “PubChem BioAssay data set” (2004)
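In this assay, cells in 96-well plates receive the compound at five concentrations for 48 hours. Endpoints are linearly interpolated between the surrounding concentrations. At the GI50, growth is halved.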 Active and inactive are the calls of the source. Rule as the data show it: active = GI50 up to about 1.1 µM and inactive = higher.

Tests used:
Experiment in all cases: growth of human tumour cells (NCI), 48 h
[1] = tested on: SK-OV-3
[2] = tested on: MDA-MB-435
[3] = tested on: IGROV-1
[4] = tested on: U-251
[5] = tested on: Hs-578T
[6] = tested on: SN12C
[7] = tested on: SF-268
[8] = tested on: HCT-116
[9] = tested on: T47D
[10] = tested on: SNB-19
[11] = tested on: PC-3
[12] = tested on: M14
[13] = tested on: BT-549
[14] = tested on: UO-31
[15] = tested on: NCI-H460
[16] = tested on: A498
[17] = tested on: MCF7
[18] = tested on: SR
[19] = tested on: SW-620
[20] = tested on: SNB-75

Compound: COc1cc(-c2ccccc2N)c2cccnc2c1OC
- GI50 [1]: 9.57 µM (inactive)
- GI50 [2]: 8.17 µM (inactive)
- GI50 [3]: 2.97 µM (inactive)
- GI50 [4]: 4.21 µM (inactive)
- GI50 [5]: 3.05 µM (inactive)
- GI50 [6]: 3.93 µM (inactive)
- GI50 [7]: 3.1 µM (inactive)
- GI50 [8]: 1.36 µM (inactive)
- GI50 [9]: 4.04 µM (inactive)
- GI50 [10]: 4.75 µM (inactive)
- GI50 [11]: 8.55 µM (inactive)
- GI50 [12]: 6.28 µM (inactive)
- GI50 [13]: 9.14 µM (inactive)
- GI50 [14]: 3.8 µM (inactive)
- GI50 [15]: 11.1 µM (inactive)
- GI50 [16]: 14.1 µM (inactive)
- GI50 [17]: 3.84 µM (inactive)
- GI50 [18]: 1.67 µM (inactive)
- GI50 [19]: 2.92 µM (inactive)

Compound: COc1ccc(CCn2ccc(=O)c(O)c2C)cc1OC
- GI50 [1]: 21.2 µM (inactive)
- GI50 [2]: 41.6 µM (inactive)
- GI50 [4]: 9.64 µM (inactive)
- GI50 [5]: < 0.01 µM (active)
- GI50 [7]: 2.37 µM (inactive)
- GI50 [8]: 37.2 µM (inactive)
- GI50 [9]: 29.9 µM (inactive)
- GI50 [10]: 16 µM (inactive)
- GI50 [11]: 56.2 µM (inactive)
- GI50 [12]: 12.2 µM (inactive)
- GI50 [13]: 52.4 µM (inactive)
- GI50 [15]: 5.81 µM (inactive)
- GI50 [17]: 20.5 µM (inactive)
- GI50 [18]: 28.4 µM (inactive)
- GI50 [19]: 41.1 µM (inactive)

Compound: c1ccc(C2C3=C(CCCC3)Nc3nnnn32)cc1 (stereo unspecified)
- GI50 [1]: > 100 µM (inactive)
- GI50 [2]: 72.6 µM (inactive)
- GI50 [3]: > 100 µM (inactive)
- GI50 [4]: > 100 µM (inactive)
- GI50 [5]: 64 µM (inactive)
- GI50 [6]: > 100 µM (inactive)
- GI50 [7]: 12.5 µM (inactive)
- GI50 [8]: > 100 µM (inactive)
- GI50 [9]: 25.4 µM (inactive)
- GI50 [10]: > 100 µM (inactive)
- GI50 [11]: 68.1 µM (inactive)
- GI50 [12]: > 100 µM (inactive)
- GI50 [13]: 34.8 µM (inactive)
- GI50 [14]: > 100 µM (inactive)
- GI50 [15]: 12.9 µM (inactive)
- GI50 [16]: 19.2 µM (inactive)
- GI50 [17]: 13.8 µM (inactive)
- GI50 [18]: > 100 µM (inactive)
- GI50 [19]: > 100 µM (inactive)

Compound: Cc1c(O)c(=O)ccn1CCc1ccc(O)cc1
- GI50 [1]: 24.8 µM (inactive)
- GI50 [2]: 42.2 µM (inactive)
- GI50 [4]: 13.9 µM (inactive)
- GI50 [5]: 24.3 µM (inactive)
- GI50 [7]: 9.51 µM (inactive)
- GI50 [8]: 35.7 µM (inactive)
- GI50 [9]: 45.6 µM (inactive)
- GI50 [10]: 15.6 µM (inactive)
- GI50 [11]: 25.9 µM (inactive)
- GI50 [12]: 17.3 µM (inactive)
- GI50 [13]: > 100 µM (inactive)
- GI50 [15]: 17.1 µM (inactive)
- GI50 [17]: 23.9 µM (inactive)
- GI50 [18]: 34.6 µM (inactive)
- GI50 [19]: 44.8 µM (inactive)

Compound: C[C@H]1CCCCC[C@@H]2CC(=O)CC2C(=O)CCC(=O)O1 (stereo partly specified)
- GI50 [2]: > 100 µM (inactive)
- GI50 [3]: > 100 µM (inactive)
- GI50 [4]: > 100 µM (inactive)
- GI50 [5]: > 100 µM (inactive)
- GI50 [6]: > 100 µM (inactive)
- GI50 [7]: > 100 µM (inactive)
- GI50 [8]: > 100 µM (inactive)
- GI50 [9]: > 100 µM (inactive)
- GI50 [10]: > 100 µM (inactive)
- GI50 [11]: > 100 µM (inactive)
- GI50 [12]: > 100 µM (inactive)
- GI50 [13]: > 100 µM (inactive)
- GI50 [15]: > 100 µM (inactive)
- GI50 [17]: > 100 µM (inactive)
- GI50 [18]: > 100 µM (inactive)
- GI50 [20]: 9.02 µM (inactive)
- GI50 [19]: > 100 µM (inactive)

Compound: O=C(CCCn1ccnc1[N+](=O)[O-])NCCn1ccnc1[N+](=O)[O-]
- GI50 [1]: > 100 µM (inactive)
- GI50 [2]: > 100 µM (inactive)
- GI50 [3]: > 100 µM (inactive)
- GI50 [4]: > 100 µM (inactive)
- GI50 [5]: > 100 µM (inactive)
- GI50 [6]: > 100 µM (inactive)
- GI50 [7]: > 100 µM (inactive)
- GI50 [8]: > 100 µM (inactive)
- GI50 [9]: > 100 µM (inactive)
- GI50 [10]: > 100 µM (inactive)
- GI50 [11]: > 100 µM (inactive)
- GI50 [12]: > 100 µM (inactive)
- GI50 [13]: > 100 µM (inactive)
- GI50 [14]: > 100 µM (inactive)
- GI50 [15]: > 100 µM (inactive)
- GI50 [17]: > 100 µM (inactive)
- GI50 [18]: > 100 µM (inactive)
- GI50 [20]: > 100 µM (inactive)
- GI50 [19]: > 100 µM (inactive)

Compound: CC(C)CC(N)C(=O)O (stereo unspecified)
- GI50 [1]: > 100 µM (inactive)
- GI50 [2]: > 100 µM (inactive)
- GI50 [3]: > 100 µM (inactive)
- GI50 [4]: > 100 µM (inactive)
- GI50 [5]: > 100 µM (inactive)
- GI50 [6]: > 100 µM (inactive)
- GI50 [7]: > 100 µM (inactive)
- GI50 [8]: > 100 µM (inactive)
- GI50 [9]: > 100 µM (inactive)
- GI50 [10]: > 100 µM (inactive)
- GI50 [11]: > 100 µM (inactive)
- GI50 [12]: > 100 µM (inactive)
- GI50 [13]: > 100 µM (inactive)
- GI50 [14]: > 100 µM (inactive)
- GI50 [15]: > 100 µM (inactive)
- GI50 [16]: > 100 µM (inactive)
- GI50 [17]: > 100 µM (inactive)
- GI50 [20]: > 100 µM (inactive)
- GI50 [19]: > 100 µM (inactive)

Compound: COc1c2ccoc2cc2oc(=O)ccc12 [BERGAPTEN]
- GI50 [2]: > 100 µM (inactive)
- GI50 [3]: > 100 µM (inactive)
- GI50 [4]: 67.9 µM (inactive)
- GI50 [5]: 65.5 µM (inactive)
- GI50 [6]: > 100 µM (inactive)
- GI50 [7]: > 100 µM (inactive)
- GI50 [8]: > 100 µM (inactive)
- GI50 [9]: > 100 µM (inactive)
- GI50 [10]: > 100 µM (inactive)
- GI50 [11]: > 100 µM (inactive)
- GI50 [12]: > 100 µM (inactive)
- GI50 [13]: 49 µM (inactive)
- GI50 [15]: > 100 µM (inactive)
- GI50 [16]: > 100 µM (inactive)
- GI50 [17]: > 100 µM (inactive)
- GI50 [18]: > 100 µM (inactive)
- GI50 [20]: 89.1 µM (inactive)
- GI50 [19]: > 100 µM (inactive)
